Data from patent US12023331B2 (priority 2018, dated 2024).
pKi: −log10 of the molar value.

Key:
5-HT2 receptor = test: DOI-induced head twitch model in mice; format: in vivo; settings: compound orally 0.5 hr before DOI
[1] = test system: NMDA-induced currents in rat mPFC; test: NMDA-induced currents in rat mPFC slices, whole-cell patch clamp; format: cell-based
[2] = test system: AMPA-induced currents in rat mPFC; test: AMPA-induced currents in rat mPFC slices, whole-cell patch clamp; format: cell-based
Protocol: Combined administration of the antipsychotic, olanzapine, and the SSRI, fluoxetine, similarly induces rapid antidepressant activity in humans and animals (Tohen et al., 2010); likewise, combined application of olanzapine and fluoxetine is required to induce AMPA receptor currents in vitro.
In contrast, the antipsychotic drug olanzapine, is found to enhance AMPA-induced currents only in the presence of the SSRI fluoxetine. 3 nM olanzapine alone results in about 100% of the AMPA-induced current of the control, while 100 nM fluoxetine results in about 90% of the AMPA-induced current of the control. However, the combination of 3 nM olanzapine and 100 nM fluoxetine is found to synergistically result in almost 150% of the AMPA-induced current of control. When SCH 23390 (1 μM) is combined with the olanzapine and fluoxetine, however, the AMPA-induced current returns to approximately 100% of the control level.

mTORC1 signaling pathway = test: Phosphorylation of mTOR pathway proteins in rat PFC; format: in vivo; settings: for mTOR phosphorylation (Serine 2448) / increase in phosphorylation of AKT at thr308 / p70s6K phosphorylation (Threonine 389): rat PFC, 30 mg/kg ketamine or 3 mg/kg Formula A i.p.; for increase in phosphorylation of AKT at thr308: both 1 hour and 24 hours post-administration; for p70s6K phosphorylation (Threonine 389): over 24 hours
[3] = Clinical studies in patients with acute exacerbated schizophrenia; format: in vivo, human; settings: 60 mg P.O. once daily up to 28 days
Text: Social avoidance can be a critical and debilitating symptom in patients suffering from anxiety disorders, especially social anxiety disorder, as well as in patients suffering from traumatic anxiety disorders. Social avoidance is often one of the key determinants of whether a person with a severe anxiety disorder is capable of maintaining familial relationships or employment relationships. […] Negative symptoms of schizophrenia can be divided into two categories: emotional experience (e.g., emotional withdrawal, passive social withdrawal, active social avoidance) and emotional expression (e.g., blunted effect, poor rapport, lack of spontaneity, and motor retardation). […] These are the symptoms that are most highly correlated with interpersonal functioning.

Mu opiate receptor = Mu opiate receptor (Homo sapiens (Human), UniProt P35372); test: biochemical
[4] = 40-minute infusion, total dose 0.5 mg/kg; after 24 hours; cited from earlier work

## O=C1CN2c3c(cccc3[C@@H]3CN(CCCOc4ccc(F)cc4)CC[C@@H]32)N1 [Example 1, (6bR,10aS)-8-(3-(4-fluorophenoxy)propyl)-6b,7,8,9,10,10a-hexahydro-1H-pyrido[3′,4′:4,5]pyrrolo[1,2,3-de]quinoxalin-2(3H)-one]
5-HT2 receptor
  EC50 for reducing DOI-induced head twitches: 0.44 mg/kg, p.o.

## CN1CCN2c3c(cccc31)[C@@H]1CN(CCCC(=O)c3ccc(F)cc3)CC[C@@H]12 [Formula A, lumateperone]
[1]; 30 nM
  NMDA-induced currents compared to control: ~150%
[1]; Formula A 30 nM combined with SCH 23390 (1 μM)
  NMDA-induced currents compared to control: about 90 % of control
[2]; Formula A 30 nM, alone and with SCH 23390 (1 μM), rat mPFC
  AMPA-induced currents compared to control: Substantially the same results
mTORC1 signaling pathway; adult rats, 1 to 8 mg/kg i.p., 60 min, 90 min or 24 hours
  activation of the mTORC1 signaling pathway in mPFC: rapidly activates the mTORC1 signaling pathway
mTORC1 signaling pathway
  mTOR phosphorylation (Serine 2448): Neither ketamine nor the Compound of Formula A results in a change
  increase in phosphorylation of AKT at thr308: ~50%
  p70s6K phosphorylation (Threonine 389): progressively increases
[3]
  symptoms of emotional experience compared to placebo: significant and unexpected improvement
Mu opiate receptor
  pKi: < 5.00

## CNCCC(Oc1ccc(C(F)(F)F)cc1)c1ccccc1 (stereo not shown) [fluoxetine]
[2]; 100 nM fluoxetine
  AMPA-induced current of the control: about 90%

## CNC1(c2ccccc2Cl)CCCCC1=O (stereo not shown) [ketamine]
mTORC1 signaling pathway
  mTOR phosphorylation (Serine 2448): Neither ketamine nor the Compound of Formula A results in a change
  increase in phosphorylation of AKT at thr308: ~50%
  p70s6K phosphorylation (Threonine 389): transiently increase
[4]
  ratings on the Hamilton Depression Rating Scale (HDRS) compared to placebo: significantly improved ratings

## Cc1cc2c(s1)Nc1ccccc1N=C2N1CCN(C)CC1 [olanzapine]
[2]; 3 nM olanzapine alone
  AMPA-induced current of the control: about 100%
